Results as given in the NIST ThermoML archive (doi:10.1016/j.tca.2015.03.027).
Numbers after ± are expanded uncertainties.

Key:
[1] = Molar enthalpy of transition or fusion; conditions: Crystal; DSC
[2] = Crystal; DTA
[3] = molar heat capacity at constant pressure; conditions: 290 K; 101.33 kPa; Crystal; Small sample (50 mg) DSC
[4] = molar heat capacity at constant pressure; wn = mass fraction of the nth substance listed; conditions: 320 K; 96 kPa; Liquid; Small sample (50 mg) DSC; w1 = 0.649

Molar enthalpy of transition or fusion [1] [kcal/mol]	Normal melting temperature [2] [°C]	molar heat capacity at constant pressure [3] [J/K/mol]	molar heat capacity at constant pressure [4] [J/K/mol]	Compound
10.5 ± 0.335	34.00 ± 2	363.41 ± 37	–	O.O.O.O.O.O.[Br-].[Br-].[Ca+2] [calcium bromide hexahydrate]
–	–	–	75.67 ± 7.5	[Br-].[Br-].[Ca+2] [calcium bromide] + O
